# Results from patent US10168342B2, “Lipid probes and uses thereof” (THE SCRIPPS RESEARCH INSTITUTE, priority 2015, dated 2019).
# Legend:
# [1] = target: T1, A-DA lipid probe targets in Neuro2a cells (Mus musculus, UniProt P22437); experiment: In situ competitive SILAC profiling with A-DA probe in Neuro2a cells; format: cell-based; details: Neuro2a cells, A-DA 5 μM, drug 25 μM
# T1 construct: endogenous in cells; host or cells: Neuro2a
# [2] = tested on: membrane and soluble proteins of HEK293T cells; experiment: Gel-based profiling of lipid probe labeling in HEK293T cells; format: cell-based, human; details: probe 20 μM, 30 min, UV
# Protocol: For gel-based analysis, after sonicating the membrane pellets in cold DPBS, protein concentrations of each fraction were determined using the BCA protein assay (Bio-Rad) and a microplate reader (Tecan, Infinite F500).
# Proteomes were diluted to 1.0 mg/mL (total protein concentration) and 50 μL of each proteome was transferred to separate wells in a 96-well plate.
# In some instances, within the arachidonoyl subset of probes, fatty acid- and fatty acid amide-based probes (AA-DA and AEA-DA, respectively) were synthesized and their potential were evaluated to bind and covalently modify (under UV-light exposure) proteins in human cells by gel-based profiling. For example, HEK293T cells were treated with probe (AA-DA or AEA-DA; 20 μM, 30 min), irradiated with UV light (10 min, 4° C.), lysed and the cell proteomes fractionated into membrane and soluble components by centrifugation prior to conjugation to a fluorescent reporter tag (Rh—N3) using CuAAC (FIG. 4A). […] In some instances, this was a consequence of rapid sequestration of this probe into membranes through its metabolic incorporation into phospho/neutral-lipids or into lipidated proteins. […] In some instances, the labeling profile of the AEA-DA probe reflected a limited capacity of the cell to metabolize this amidated probe, which undergoes enzyme-mediated hydrolysis prior to incorporation into other lipids or proteins.
# [3] = target: T2, A-DA lipid probe targets in Neuro2a cells (Mus musculus, UniProt P45377); experiment: In situ competitive SILAC profiling with A-DA probe in Neuro2a cells; format: cell-based; details: Neuro2A cells, A-DA 5 μM, drug 25 μM
# T2 construct: endogenous in cells; host or cells: Neuro2a
# [4] = tested on: PGF2α-EA formation in PMA-stimulated A549 cells; experiment: Oxidative metabolism of AEA in A549 cells (prostamide formation); format: cell-based, human; details: MJN228, KML110 5 and 25 μM, others 25 μM, AEA 20 μM
# Protocol: The media from the PMA-stimulated cells was removed and cells were washed with DPBS (2×3 mL) before adding freshly prepared media solutions containing vehicle or compound (2 mL/plate). After incubating for 30 min at 37° C., a solution of BHT-stabilized AEA (60 μM AEA; 60 μM BHT) in the same media was added to the cells (1.0 mL/plate) and incubated for 1 h. The media from the cells was then transferred to glass vials containing MS internal standards [PGE2-EA-d4 (25 pmol)], centrifuged (1,500×g, 5 min) to remove detached cells and then loaded onto pre-equilibrated reversed phase SPE cartridges (Phenomenex, Strata-X 33 μm, 60 mg/3 mL). After washing cartridges with 5% MeOH/H2O (3 mL), prostamides were eluted with MeOH (1.0 mL) and the eluent was concentrated under a stream of N2. Concentrated samples were stored at −80° C. until the day of analysis when they were reconstituted in Mobile Phase A [100 μL, 30% CH3CN in H2O (0.1% AcOH, 5.0 mM NH4OAc)].
# Media extracts were analyzed by LC/MS/MS with LC separation performed on a Kinetex reversed phase C18 column (50×4.6 mm, 2.6 μm particle size, 100Å). Mobile phase A was composed of 30% (v/v) CH3CN in H2O and Mobile phase B was composed of 50% (v/v) CH3CN in i-PrOH. Both mobile phases also contained 0.1% AcOH and NH4OAc (5 mM) to facilitate ionization and LC separation. […]
# MS analysis of prostamides was performed on an Agilent 6460 Triple Quadrupole LC/MS System with operating conditions as follows: gas temperature (300° C.); gas flow (9 L·min^−1); nebulizer (45 psi); sheath gas temperature (300° C.); sheath gas flow (12 L·min^−1); positive and negative capillary voltage (3.5 kV). Analysis was achieved using multiple reaction monitoring with precursor to product ion transitions, optimized collision energies (CE) as listed below and prostamide quantification was achieved by normalized of analyte peaks relative to a deuterated prostamide internal standard (PGE2-EA-d4) to account for differences in extraction efficiency. […]
# [5] = target: T3, A-DA lipid probe targets in A549 cells (Homo sapiens, UniProt P35354); experiment: In situ competitive SILAC profiling with A-DA probe in (PMA-stimulated) A549 cells; details: PMA-stimulated A549 cells, A-DA 5 μM, drug 25 μM
# T3 sequence (P35354 18-604): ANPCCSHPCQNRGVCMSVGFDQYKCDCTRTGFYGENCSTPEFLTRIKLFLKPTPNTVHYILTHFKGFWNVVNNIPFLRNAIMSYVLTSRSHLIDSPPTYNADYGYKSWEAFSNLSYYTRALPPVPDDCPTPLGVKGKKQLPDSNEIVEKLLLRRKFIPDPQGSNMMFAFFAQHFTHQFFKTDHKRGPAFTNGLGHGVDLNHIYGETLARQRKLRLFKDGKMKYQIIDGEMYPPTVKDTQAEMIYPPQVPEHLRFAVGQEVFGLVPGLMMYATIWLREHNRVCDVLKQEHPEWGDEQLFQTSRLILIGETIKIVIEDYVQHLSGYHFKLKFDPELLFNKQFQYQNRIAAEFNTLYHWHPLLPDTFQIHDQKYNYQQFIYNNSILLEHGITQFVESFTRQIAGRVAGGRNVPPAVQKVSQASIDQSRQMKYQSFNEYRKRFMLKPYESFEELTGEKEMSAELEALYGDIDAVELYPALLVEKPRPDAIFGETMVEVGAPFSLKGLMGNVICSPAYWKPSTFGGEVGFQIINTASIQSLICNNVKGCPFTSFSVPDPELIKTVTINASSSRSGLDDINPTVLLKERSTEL
# [6] = target: A-DA lipid probe targets in A549 cells (Homo sapiens, UniProt P07093); experiment: as above; details: protein SERPINE2 (P07093); A549 cells; competitor 25 μM
# [7] = target: T4, A-DA lipid probe targets in A549 cells (Homo sapiens, UniProt Q9UH99); experiment: as above; details: protein SUN2 (Q9UH99); A549 cells; competitor 25 μM
# T4 sequence (Q9UH99 1-717): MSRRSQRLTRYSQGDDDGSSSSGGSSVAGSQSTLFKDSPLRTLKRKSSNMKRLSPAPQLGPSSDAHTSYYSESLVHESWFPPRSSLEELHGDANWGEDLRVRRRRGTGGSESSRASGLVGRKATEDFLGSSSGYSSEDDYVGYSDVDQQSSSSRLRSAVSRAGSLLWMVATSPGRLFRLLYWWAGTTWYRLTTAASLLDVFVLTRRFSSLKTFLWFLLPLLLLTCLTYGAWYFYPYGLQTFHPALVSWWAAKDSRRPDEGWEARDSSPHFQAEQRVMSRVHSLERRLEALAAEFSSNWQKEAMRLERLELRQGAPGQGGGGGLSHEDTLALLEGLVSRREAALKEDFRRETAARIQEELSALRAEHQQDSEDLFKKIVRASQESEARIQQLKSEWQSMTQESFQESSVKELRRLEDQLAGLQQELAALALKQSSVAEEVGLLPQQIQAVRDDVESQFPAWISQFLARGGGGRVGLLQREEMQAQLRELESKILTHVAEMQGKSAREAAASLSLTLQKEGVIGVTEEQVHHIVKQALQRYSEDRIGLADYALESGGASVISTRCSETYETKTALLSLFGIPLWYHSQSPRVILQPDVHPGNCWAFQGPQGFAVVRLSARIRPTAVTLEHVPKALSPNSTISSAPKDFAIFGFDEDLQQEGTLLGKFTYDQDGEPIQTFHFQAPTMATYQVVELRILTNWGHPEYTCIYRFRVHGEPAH
# [8] = tested on: sterol-binding proteins in HeLa cells; experiment: Gel-based profiling of sterol-binding proteins in HeLa cells; format: cell-based, human; details: 1-20 μM probe
# Protocol: HeLa cells were grown at 37° C. under a humidified 5% CO2 atmosphere, in a culture medium consisting of high-glucose DMEM (HyClone) supplemented with 10% fetal bovine serum (FBS; Gemini) and penicillin, streptomycin, and glutamine (Cellgro; PSQ). For SILAC experiments, the culture medium was replaced with SILAC DMEM (Thermo) supplemented instead with 10% dialyzed FBS, PSQ, and 100 μg/ml [^13C6, ^15N4] L-arginine-HCl and [^13C6, ^15N2] L-lysine-HCl (Sigma-Aldrich). Cells were passaged at least six times in isotopically labeled media before being utilized for analysis by LC-MS/MS.
# To facilitate delivery to cells, all sterols and steroids, including the sterol probes, were complexed in aqueous solution to mβCD (Sigma-Aldrich) for at least twelve hours before dilution in culture medium for labeling. The desired amount of sterol or steroid was added to a saturated aqueous mβCD (38 mM) solution to generate a concentrated stock, and agitated at room temperature overnight; solutions were filtered prior to use the following day. […]
# Frozen cell pellets were thawed on ice and lysed in PBS by sonication. Protein concentrations of cell lysates were determined using the BCA protein assay on a microplate reader. […] After 1 hour, samples were mixed with SDS sample loading buffer and loaded without boiling on a 10% SDS-PAGE gel, separated, and imaged using a Hitachi FMBIO-II flatbed fluorescence scanner.
# [9] = tested on: sterol-binding proteins in HeLa cells; experiment: SILAC MS-based profiling of sterol-binding proteins in HeLa cells; format: cell-based, human; details: probe-enriched proteins
# Protocol: To facilitate delivery to cells, all sterols and steroids, including the sterol probes, were complexed in aqueous solution to mβCD (Sigma-Aldrich) for at least twelve hours before dilution in culture medium for labeling. The desired amount of sterol or steroid was added to a saturated aqueous mβCD (38 mM) solution to generate a concentrated stock, and agitated at room temperature overnight; solutions were filtered prior to use the following day. Aqueous stock solutions of the trans probe were prepared at 2 mM; the cis and epi probes were prepared at 1.2 mM; cholesterol and other sterols for competition were prepared at 4 mM; steroids were prepared at 5 mM. […]
# T2 sequence (P45377 whole entry): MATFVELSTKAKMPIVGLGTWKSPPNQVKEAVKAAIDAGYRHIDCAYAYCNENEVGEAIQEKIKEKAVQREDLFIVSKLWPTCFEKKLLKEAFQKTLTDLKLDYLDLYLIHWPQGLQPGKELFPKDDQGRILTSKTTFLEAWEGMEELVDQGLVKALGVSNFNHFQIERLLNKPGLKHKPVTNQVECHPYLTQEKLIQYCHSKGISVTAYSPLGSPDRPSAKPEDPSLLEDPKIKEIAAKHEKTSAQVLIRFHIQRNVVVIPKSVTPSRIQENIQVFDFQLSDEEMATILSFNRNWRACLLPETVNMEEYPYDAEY
# T1 sequence (P22437 27-602): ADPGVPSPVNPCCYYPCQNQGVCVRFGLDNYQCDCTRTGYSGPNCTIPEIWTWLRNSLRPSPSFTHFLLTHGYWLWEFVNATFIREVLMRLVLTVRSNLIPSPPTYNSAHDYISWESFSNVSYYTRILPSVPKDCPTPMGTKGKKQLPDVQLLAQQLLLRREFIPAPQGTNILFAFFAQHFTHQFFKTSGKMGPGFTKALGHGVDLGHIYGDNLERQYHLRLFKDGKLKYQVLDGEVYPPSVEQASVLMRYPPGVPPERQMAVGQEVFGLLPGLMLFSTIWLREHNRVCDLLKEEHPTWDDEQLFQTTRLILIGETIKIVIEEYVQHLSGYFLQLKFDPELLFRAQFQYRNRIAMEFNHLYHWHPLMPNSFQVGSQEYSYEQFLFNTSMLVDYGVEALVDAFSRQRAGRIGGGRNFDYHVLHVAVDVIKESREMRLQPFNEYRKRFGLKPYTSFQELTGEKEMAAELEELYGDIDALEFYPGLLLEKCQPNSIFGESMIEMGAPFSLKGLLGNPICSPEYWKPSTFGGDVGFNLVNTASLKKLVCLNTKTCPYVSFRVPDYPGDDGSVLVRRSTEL
# Chain of A-DA lipid probe targets in A549 cells (Homo sapiens, UniProt P07093) (P07093 20-398): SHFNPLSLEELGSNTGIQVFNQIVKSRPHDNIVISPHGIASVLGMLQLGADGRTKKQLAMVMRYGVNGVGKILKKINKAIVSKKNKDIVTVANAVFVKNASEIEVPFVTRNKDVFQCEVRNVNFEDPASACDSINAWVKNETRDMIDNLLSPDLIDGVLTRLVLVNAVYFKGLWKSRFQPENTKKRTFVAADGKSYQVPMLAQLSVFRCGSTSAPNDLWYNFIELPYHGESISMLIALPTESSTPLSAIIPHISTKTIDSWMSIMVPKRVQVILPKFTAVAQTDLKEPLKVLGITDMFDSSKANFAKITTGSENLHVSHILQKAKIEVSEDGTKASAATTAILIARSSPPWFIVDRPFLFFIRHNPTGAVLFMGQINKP
structure (smiles),measurement,setting,value
CC(C(=O)O)c1ccc(-c2ccccc2)c(F)c1 (racemic) [(±)-flurbiprofen],competition of A-DA labeling of PTGS1,[1],competitively blocked
"C#CCCCC1(CC/C=C\C/C=C\C/C=C\CCCC(=O)O)N=N1 [AA-DA, (5Z,8Z,11Z)-14-(3-(pent-4-yn-1-yl)-3H-diazirin-3-yl)tetradeca-5,8,11-trienoic acid]",protein labeling profile (membrane vs soluble),[2],almost exclusive labeling of membrane proteins
"CS(=O)(=O)c1ccc(C2=C(c3ccccc3)C(=O)OC2)cc1 [rofecoxib, reference compound]",A-DA labeling of AKR1B8,[3],reductions
same,conversion of exogenous AEA to PGF2α-EA,[4],blocked
same,competition of A-DA labeling of PTGS2,[5],disrupted
same,"SILAC ratio, A-DA competition",[6],1.1
same,"SILAC ratio, A-DA competition",[7],1.2
"C#CCCCCOC(=O)CC[C@@H](C)[C@H]1CCC2C3CC4(N=N4)[C@H]4C[C@@H](O)CC[C@]4(C)C3CC[C@@]21C (stereo partly drawn) [trans-sterol probe, (4R)-hex-5-yn-1-yl 4-((3S,5S,10R,13R,17R)-3-hydroxy-10,13-dimethyl-1,2,3,4,5,7,8,9,10,11,12,13,14,15,16,17-hexadecahydrospiro[cyclopenta[a]phenanthrene-6,3′-diazirin]-17-yl)pentanoate]",overall protein-labeling profile by gel,[8],stronger overall protein-labeling profiles
same,mean labeling intensity ratio trans/epi,[9]; standard deviation 1.2,2.1
same,mean labeling intensity ratio trans/cis,[9]; standard deviation=0.57,0.9
